Data on 9 compounds can be found in patent US20240342292A1, “Compounds for the Degradation of EGFR Kinase” (BeiGene Switzerland GmbH, priority 2021, published 2024).

Values joined by “and” are separate entries in the source; they are usually repeats but may differ in a detail not shown here. Equal entries are not always repeated.

One assay deals with Del19/T790M/C797S EGFR. As to the kind of experiment: EGFR degradation HTRF assay in H1975-clone #28 (DTC) cells. Format: cell-based. Conditions: H1975 # 28 DTC (Del19/T790M/C797S), 16h treatment; for DC50: HTRF; for Dmax (%): maximum percentage of degradation. An outline of the steps: (§1)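 H1975 clones stably overexpressing mutant EGFR by lentivirus, with endogenous EGFR knocked out by sgRNA and homozygosity confirmed by sequencing, were treated 16 h at 37 °C with compounds in 0.2% DMSO medium, 8 doses from 10 uM in 5-fold dilution. Lysates were read by HTRF (665/620 nm); DC50 came from a four-parameter fit.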

A further assay concerns the target T1, L858R/T790M/C797S EGFR (Homo sapiens, UniProt P00533, C797S/L858R/T790M).
T1 construct: expressed in transfected cells; host or cells: H1975 clone #25 (lentiviral over-expression, endogenous EGFR knocked out by sgRNA)
The assay is described as follows: EGFR degradation HTRF assay in H1975-clone #25 (LTC) cells. The format is cell-based. Conditions: 16h treatment; for DC50: HTRF; for Dmax: NCI-H1975, H1975 # 25-LTC (L858R/T790M/C797S). An outline of the steps: as §1
On the technique in general: TR-FRET usually uses a lanthanide donor and a delayed reading to cut background.

The mark [1] stands for this setting: H1975 # 25-LTC (L858R/T790M/C797S).
Where [2] appears, read: maximum percentage of degradation.

T1 sequence (P00533 25-1210 T790M/C797S/L858R): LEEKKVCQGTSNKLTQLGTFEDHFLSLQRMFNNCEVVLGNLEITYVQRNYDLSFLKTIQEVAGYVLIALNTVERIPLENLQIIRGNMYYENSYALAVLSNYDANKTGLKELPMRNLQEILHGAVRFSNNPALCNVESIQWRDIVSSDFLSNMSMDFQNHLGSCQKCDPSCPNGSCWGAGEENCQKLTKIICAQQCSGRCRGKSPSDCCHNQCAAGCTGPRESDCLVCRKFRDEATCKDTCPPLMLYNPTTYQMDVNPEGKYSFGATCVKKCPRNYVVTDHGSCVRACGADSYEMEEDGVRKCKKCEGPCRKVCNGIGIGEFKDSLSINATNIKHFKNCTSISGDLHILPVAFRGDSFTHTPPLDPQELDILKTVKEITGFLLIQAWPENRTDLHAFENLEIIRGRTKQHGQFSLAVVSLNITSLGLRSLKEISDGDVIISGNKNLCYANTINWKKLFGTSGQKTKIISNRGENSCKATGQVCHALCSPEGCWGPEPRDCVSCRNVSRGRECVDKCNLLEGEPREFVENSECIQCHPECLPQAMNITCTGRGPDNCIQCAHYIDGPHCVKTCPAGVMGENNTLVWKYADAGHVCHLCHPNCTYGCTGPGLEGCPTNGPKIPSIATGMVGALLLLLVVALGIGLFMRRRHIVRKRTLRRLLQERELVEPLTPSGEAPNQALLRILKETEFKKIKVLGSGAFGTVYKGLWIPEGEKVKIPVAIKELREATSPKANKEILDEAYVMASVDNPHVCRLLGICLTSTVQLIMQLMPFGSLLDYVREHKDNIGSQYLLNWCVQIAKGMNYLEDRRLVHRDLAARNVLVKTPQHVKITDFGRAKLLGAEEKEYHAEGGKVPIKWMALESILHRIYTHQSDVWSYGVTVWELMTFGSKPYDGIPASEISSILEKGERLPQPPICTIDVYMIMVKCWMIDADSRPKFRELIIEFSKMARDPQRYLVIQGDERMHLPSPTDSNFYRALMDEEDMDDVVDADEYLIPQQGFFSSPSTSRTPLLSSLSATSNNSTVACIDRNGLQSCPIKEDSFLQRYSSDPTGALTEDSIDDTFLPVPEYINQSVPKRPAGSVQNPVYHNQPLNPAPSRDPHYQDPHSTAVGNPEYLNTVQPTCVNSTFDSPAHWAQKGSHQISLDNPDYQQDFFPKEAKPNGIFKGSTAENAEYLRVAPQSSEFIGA

One may read the DC50 as the concentration at which degradation of the target reaches its halfway point. Higher therefore signals a less potent degrader. One may read the Dmax as the greatest extent of degradation seen. Low readings indicate shallow degradation, high ones deep degradation. As for `Cc1cc2cc(n1)-c1cnn(C)c1OCCC[C@@H](C)CN1/C(=N/C2=O)Nc2ccc(C(=O)N(C)C3CCN(CCc4cc(F)c([C@H]5CCC(=O)NC5=O)c(F)c4)CC3(C)C)cc21` (stereo partly drawn) [Example 439, (R,E)-N—((S)-1-(4-((R)-2,6-dioxopiperidin-3-yl)-3,5-difluorophenethyl)-3,3-dimethylpiperidin-4-yl)-N,1^1,2^6,7-tetramethyl-3-oxo-5^2,5^3-dihydro-1^1H,5^1H-11-oxa-4-aza-5(2,1)-benzo[d]imidazola-2(2,4)-pyridina-1(4,5)-pyrazolacycloundecaphane-5^6-carboxamide], in the assay with Del19/T790M/C797S EGFR, the DC50 turned out to be 1.52 nM and the “Dmax (%)” value stood at 76.03%. Also, the 50% degradation concentration (DC50) at L858R/T790M/C797S EGFR (setting [1]) turned out to be 1.4 nM. For the same compound, the Dmax on L858R/T790M/C797S EGFR (setting [2]) is 87.3%.
As for `Cc1cc2cc(n1)-c1cnn(C)c1OCCC[C@@H](C)CN1/C(=N/C2=O)Nc2ccc(C(=O)N(C)[C@@H]3CCCN(CCc4cc(F)c([C@H]5CCC(=O)NC5=O)c(F)c4)CC3)cc21` [Example 292, (R,E)-N—((R)-1-(4-((R)-2,6-dioxopiperidin-3-yl)-3,5-difluorophenethyl)azepan-4-yl)-N,1^1,2^6,7-tetra methyl-3-oxo-5^2,5^3-dihydro-1^1H,5^1H-11-oxa-4-aza-5(2,1)-benzo[d]imidazola-2(2,4)-pyridina-1(4,5)-pyrazolacycloundecaphane-5^6-carboxamide], in the assay with Del19/T790M/C797S EGFR, the DC50 worked out at 0.608 nM and the “Dmax (%)” value is 85.48%. Besides, the half-maximal degradation concentration (DC50) at L858R/T790M/C797S EGFR (setting [1]) worked out at 0.514 nM. This compound gave a Dmax at L858R/T790M/C797S EGFR (setting [2]) of 89.4%.
For the compound `Cc1cc2cc(n1)-c1cnn(C)c1OCCC[C@@H](C)CN1/C(=N/C2=O)Nc2ccc(C(=O)N(C)[C@H]3CCN(CCc4cc(F)c([C@H]5CCC(=O)NC5=O)c(F)c4)C[C@H]3C)cc21` [Example 256, (R,E)-N-((3R,4S)-1-(4-((R)-2,6-dioxopiperidin-3-yl)-3,5-difluorophenethyl)-3-methylpiperidin-4-yl) -N,1^1,2^6,7-tetramethyl-3-oxo-5^2,5^3-dihydro-1^1H,5^1H-11-oxa-4-aza-5(2,1)-benzo[d]imidazola-2(2,4)-pyridina-1(4,5)-pyrazolacycloundecaphane-5^6-carboxamide], in the assay on Del19/T790M/C797S EGFR, the half-maximal degradation concentration (DC50) came to 0.608 nM and the “Dmax (%)” value came out at 83.08%. This compound showed a DC50 at L858R/T790M/C797S EGFR (setting [1]) of 0.326 nM. In addition, the Dmax on L858R/T790M/C797S EGFR (setting [2]) is 88.1%.
For `Cc1cc2cc(n1)-c1cnn(C)c1OCCC[C@@H](C)CN1/C(=N/C2=O)Nc2ccc(C(=O)N(C)CCCCc3cc(F)c([C@H]4CCC(=O)NC4=O)c(F)c3)cc21` [Example 339, (R,E)-N-(4-(4-((R)-2,6-dioxopiperidin-3-yl)-3,5-difluorophenyl)butyl)-N,1^1,2^6,7-tetramethyl-3-oxo-5^2,5^3-dihydro-1^1H,5^1H-11-oxa-4-aza-5(2,1)-benzo[d]imidazola-2(2,4)-pyridina-1(4,5)-pyrazolacycloundecaphane-5^6-carboxamide], in that order: 0.671 nM, 70.76%, 0.865 nM and 80.3%.
For `Cc1cc2cc(n1)-c1cnn(C)c1OCCC[C@@H](C)CN1/C(=N/C2=O)Nc2ccc(N3CCN(CCC4CCN(c5cc(F)c([C@H]6CCC(=O)NC6=O)c(F)c5)CC4)CC3=O)cc21` [Example 437, (R)-3-(2,6-difluoro-4-(4-(2-(3-oxo-4-((R,E)-1^1,2^6,7-trimethyl-3-oxo-5^2,5^3-dihydro-1^1H,5^1H-11-oxa-4-aza-5(2,1)-benzo[d]imidazola-2(2,4)-pyridina-1(4,5)-pyrazolacycloundecaphane-5^6-yl)piperazin-1-yl)ethyl)piperidin-1-yl)phenyl)piperidine-2,6-dione], in that order: 0.534 nM, 88.76%, 1.01 nM and 91%.
Regarding `Cc1cc2cc(n1)-c1cnn(C)c1OCCC[C@@H](C)CN1/C(=N/C2=O)Nc2ccc(C(=O)N[C@@H]3CCN(CCc4cc(F)c([C@H]5CCC(=O)NC5=O)c(F)c4)C[C@H]3F)cc21` [Example 345, (R,E)-N—((3R,4R)-1-(4-((R)-2,6-dioxopiperidin-3-yl)-3,5-difluorophenethyl)-3-fluoropiperidin-4-yl)-1^1,2^6,7-trimethyl-3-oxo-5^2,5^3-dihydro-1^1H,5^1H-11-oxa-4-aza-5(2,1)-benzo[d]imidazola-2(2,4)-pyridina-1(4,5)-pyrazolacycloundecaphane-5^6-carboxamide], the DC50 in the assay on Del19/T790M/C797S EGFR is 0.662 nM and 0.7 nM; at L858R/T790M/C797S EGFR (setting [1]) it was 0.634 nM and 0.6 nM. For the same compound, the “Dmax (%)” value is 74.46% and 74.5% in the assay with Del19/T790M/C797S EGFR; 92.5% at L858R/T790M/C797S EGFR (H1975 # 25-LTC (L858R/T790M/C797S), maximum percentage of degradation). At L858R/T790M/C797S EGFR (setting [2]), this compound registered a Dmax of 92.5%.
Regarding `Cc1cc2cc(n1)-c1cnn(C)c1OCCC[C@@H](C)CN1/C(=N/C2=O)Nc2ccc(C3CCN(C(=O)[C@H]4CN(c5cc(F)c([C@H]6CCC(=O)NC6=O)c(F)c5)CC4(C)C)CC3)cc21` [Example 327, (R)-3-(4-((R)-3,3-dimethyl-4-(4-((R,E)-1^1,2^6,7-trimethyl-3-oxo-5^2,53-dihydro-1^1H,5^1H-11-oxa-4-aza-5(2,1)-benzo[d]imidazola-2(2,4)-pyridina-1(4,5)-pyrazolacycloundecaphane-5^6-yl)piperidine-1-carbonyl)pyrrolidin-1-yl)-2,6-difluorophenyl)piperidine-2,6-dione], in the assay on Del19/T790M/C797S EGFR, the 50% degradation concentration (DC50) was determined as 1.09 nM and the “Dmax (%)” value is recorded as 74.51%. The compound also returned a DC50 at L858R/T790M/C797S EGFR (setting [1]) of 3.17 nM. Further, the Dmax at L858R/T790M/C797S EGFR (setting [2]) amounted to 83.7%.
For `Cc1cc2cc(n1)-c1cnn(C)c1OCCC[C@@H](C)CN1/C(=N/C2=O)Nc2ccc(C(=O)N(C)[C@@H]3CCN(CCc4cc(F)c([C@H]5CCC(=O)NC5=O)c(F)c4)CC3(C)C)cc21` [Example 262, (R,E)-N—((R)-1-(4-((R)-2,6-dioxopiperidin-3-yl)-3,5-difluorophenethyl)-3,3-dimethylpiperidin-4-yl)-N,1^1,2^6,7-tetramethyl-3-oxo-5^2,5^3-dihydro-1^1H,5^1H-11-oxa-4-aza-5(2,1)-benzo[d]imidazola-2(2,4)-pyridina-1(4,5)-pyrazolacycloundecaphane-5^6-carboxamide] the same measures were 0.474 nM, 76.44%, 0.543 nM and 84.2%.
For `Cc1cc2cc(n1)-c1cnn(C)c1OCCC[C@@H](C)CN1/C(=N/C2=O)Nc2ccc(N3CCN(CCNc4cc(F)c([C@H]5CCC(=O)NC5=O)c(F)c4)[C@H](CC#N)C3)cc21` [Example 442, 2-((R)-1-(2-((4-((R)-2,6-dioxopiperidin-3-yl)-3,5-difluorophenyl)amino)ethyl)-4-((R,E)-1^1,2^6,7-trimethyl-3-oxo-5^2,5^3-dihydro-1^1H,5^1H-11-oxa-4-aza-5(2,1)-benzo[d]imidazola-2(2,4)-pyridina-1(4,5)-pyrazolacycloundecaphane-5^6-yl)piperazin-2-yl)acetonitrile] the same measures were 0.721 nM, 70.20%, 0.742 nM and 84.4%.
